We go through 13 compounds from patent US20250206738A1, “WRN INHIBITORS” (Nimbus Wadjet, Inc., priority 2023, published 2025).

T1 sequence (Q14191 with tags, fused parts or gaps L1074F): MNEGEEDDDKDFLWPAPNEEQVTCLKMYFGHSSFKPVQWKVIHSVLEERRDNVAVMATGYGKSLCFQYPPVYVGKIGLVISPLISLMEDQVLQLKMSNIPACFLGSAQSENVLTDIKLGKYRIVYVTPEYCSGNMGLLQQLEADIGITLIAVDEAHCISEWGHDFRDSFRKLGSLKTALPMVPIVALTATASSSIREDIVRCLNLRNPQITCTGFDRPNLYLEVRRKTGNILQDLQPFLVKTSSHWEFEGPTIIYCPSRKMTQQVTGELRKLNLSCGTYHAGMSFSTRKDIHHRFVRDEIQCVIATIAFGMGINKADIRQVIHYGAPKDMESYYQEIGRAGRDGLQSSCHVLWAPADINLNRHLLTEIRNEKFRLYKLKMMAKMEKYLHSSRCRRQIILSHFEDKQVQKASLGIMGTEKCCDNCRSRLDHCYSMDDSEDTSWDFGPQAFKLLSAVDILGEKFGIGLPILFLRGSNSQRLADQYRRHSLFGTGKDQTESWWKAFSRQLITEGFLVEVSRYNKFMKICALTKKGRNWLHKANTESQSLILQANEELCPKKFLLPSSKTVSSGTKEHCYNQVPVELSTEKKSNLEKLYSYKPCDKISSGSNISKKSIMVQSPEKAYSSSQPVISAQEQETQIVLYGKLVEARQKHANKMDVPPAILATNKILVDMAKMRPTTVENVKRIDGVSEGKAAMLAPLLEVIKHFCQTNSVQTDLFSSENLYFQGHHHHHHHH

The assay has as its target T1, human Werner helicase (WRN, Uniprot Q14191, amino acids 517-1235 with L1074F point mutation; WRN-BV08) (Homo sapiens, UniProt Q14191, L1074F).
T1 construct: Uniprot Q14191, amino acids 517-1235 with L1074F point mutation; 8xHis (C, cleaved yes); TEV cleavage site (ENLYFQG) (C, cleaved yes); made in house; host or cells: Sf9 insect cells (baculovirus, pFastBac)
As to the kind of experiment: WRN (BV08) ADP-Glo assay. Type of assay: biochemical. Conditions: WRN-BV08 (aa 517-1235, L1074F); read-out: ADP-Glo_hWRN_IC50. An excerpt: Example 2: WRN (BV08) ADP-Glo Assay Protocol
Bovine skin gelatin (BSG), dimethyl sulfoxide (DMSO), Pluronic F-127 and tris(2-carboxyethyl)phosphine hydrochloride solution (TCEP) were purchased from Sigma-Aldrich (St. Louis, MO) at the highest level of purity possible. Bicine buffer solution was purchased from Alfa Aesar (Tewksbury, MA) and compound NSC-617145 was purchased from Tocris (Minneapolis, MN). DNA duplex was synthesized at BGI (Shenzhen, China) and was composed of strand 1 with the sequence 5′-[…]-3′ (SEQ ID NO.: 1) and strand 2 with the sequence 5′-[…]-3′ (SEQ ID NO.: 2). DNA strands were annealed by heating to 95° C. for 5 minutes followed by slow cooling to room temperature. Compounds in 100% DMSO ([…]) were spotted into a 384-well white polystyrene Optiplate-384 (Perkin Elmer; Waltham, MA) assay plate using a LabCyte Echo 550 (Agilent; Santa Clara, CA). DMSO ([…]) was added to columns 12, rows A-H and column 24, rows I-P for the maximum signal control. Compound NSC-617145 ([…]) was added to columns 12, rows I-P and 24, rows A-H for the minimum signal control (100% inhibition). Compounds/DMSO were preincubated for 15 minutes at 25° C. with […] 2×WRN (BV08), prepared as described below, in assay buffer containing 20 mM Bicine (pH=7.5), 1 mM MgCl2, 10 mM KCl, 0.1% Pluronic F-127, 0.005% BSG, 1 mM TCEP. The reaction was initiated by the addition of […] 2× substrate mixture in assay buffer and incubated for 60 minutes at 25° C. The final concentrations of the assay components were 0.15 nM WRN, […], and 0.1 nM DNA duplex. The final DMSO concentration was 1% and the reference compound concentration (NSC-617145) used for the minimal signal control was […]. The reaction was stopped by the addition of the ADP-Glo Kit components (Promega; Madison, WI) as directed and the relative luminescence units (RLU) were read on an Envision 2104 (Perkin Elmer; Waltham, MA).
% Inhibition Calculation:
Where RLU=relative luminescence units, sample=signal in sample well, and MIN and MAX are the respective minimum and maximum signal controls.
Four-Parameter IC50 Fit Equation:
Where top and bottom are normally allowed to float but may be fixed at 100 or 0 respectively in a 3-parameter fit. Y is the % inhibition and X is the compound concentration.
Molecular Biology and virus production. The DNA encoding human Werner helicase (Uniprot Q14191, amino acids 517-1235 with L1074F point mutation) was generated with codon-optimization for […] expression and subcloned into the pFastBac vector with a TEV cleavable 8×His tag (SEQ ID NO: 5) (WRN—BV08). The baculovirus from the expression plasmid WRN—BV08 was generated from transfection and amplification following the manufacturer's instructions.
Sf9 cells grown in SF900II media were infected with 1:200 WRN—BV08 P2 virus and incubated for protein expression for 72 h at 27° C. The WRN protein was purified using the following protocol. The cell pellets were thawed and resuspended in buffer A (50 mM Tris, pH 7.5, 500 mM NaCl, 1 mM TCEP, 10% Glycerol) supplemented with 0.5% CHAPS, 1 mM PMSF, 1 μg/ml Leupeptin, 1 μg/ml Pepstatin, and the Pierce Universal Nuclease and cocktail tablet. Cleared lysates were loaded onto a Ni Sepharose™ excel column and washed with buffer A and bound protein was eluted with buffer A supplemented with 300 mM imidazole. The eluted protein was dialyzed against buffer A and digested by His-tagged TEV (1:5 ratio) overnight at 4° C. ZnCl2 was added into the sample at final 15 μM before loading onto a second Ni Sepharose™ excel column. Untagged WRN protein was eluted from the column with buffer A supplemented with 20 mM imidazole, dialyzed overnight into buffer B (50 mM Tris, pH 7.5, 1 mM TCEP, 10% Glycerol) supplemented with 150 mM NaCl and loaded onto a Heparin column. Proteins were eluted with a step gradient of buffer B supplemented with 150 mM, 200 mM, 300 mM and 500 mM NaCl. […]
On to `CCc1c(N2CCN(C(=O)c3ncnc(C)c3O)[C@H]3CC[C@@H]32)c(=O)c2nn(C3=CCN(CC(F)F)CC3)nc2n1CC(=O)NC12CC(C3CC3)(C1)C2` [I-174, N-{3-cyclopropylbicyclo[1.1.1]pentan-1-yl}-2-{2-[1-(2,2-difluoroethyl)-1,2,3,6-tetrahydropyridin-4-yl]-5-ethyl-6-[(1S,6S)-5-(5-hydroxy-6-methylpyrimidine-4-carbonyl)-2,5-diazabicyclo[4.2.0]octan-2-yl]-7-oxo-2H,4H,7H-[1,2,3]triazolo[4,5-b]pyridin-4-yl}acetamide], for which the IC50 fell in the range of 5 to 50 nM. The result for `CCc1c(N2CCN(C(=O)c3c(OC)ncc(C)c3O)CC2)c(=O)c2nn(-c3ccnc(OC)c3)nc2n1CC(=O)NC12CC(N3CCCC3)(C1)C2` [I-126, 2-{5-ethyl-6-[4-(4-hydroxy-2-methoxy-5-methylpyridine-3-carbonyl)piperazin-1-yl]-2-(2-methoxypyridin-4-yl)-7-oxo-2H,4H,7H-[1,2,3]triazolo[4,5-b]pyridin-4-yl}-N-[3-(pyrrolidin-1-yl)bicyclo[1.1.1]pentan-1-yl]acetamide] reads above 500 nM; that for `CCc1c(N2CCN(C(=O)c3ncnc(C)c3O)[C@H]3CC[C@@H]32)c(=O)c2nn(C3=CCOC(C)C3)nc2n1CC(=O)NC12CC(C3CC3)(C1)C2` (stereo partly drawn) [I-162, N-{3-cyclopropylbicyclo[1.1.1]pentan-1-yl}-2-{5-ethyl-6-[(1S,6S)-5-(5-hydroxy-6-methylpyrimidine-4-carbonyl)-2,5-diazabicyclo[4.2.0]octan-2-yl]-2-(2-methyl-3,6-dihydro-2H-pyran-4-yl)-7-oxo-2H,4H,7H-[1,2,3]triazolo[4,5-b]pyridin-4-yl}acetamide], 5 to 50 nM.

As to `CCc1c(N2CCN(C(=O)c3ncnc(C)c3O)CC2)c(=O)c2nn(C3=CCOCC3)nc2n1CC(=O)NC12CC(C(C)C)(C1)C2` [I-59, 2-[2-(3,6-dihydro-2H-pyran-4-yl)-5-ethyl-6-[4-(5-hydroxy-6-methylpyrimidine-4-carbonyl)piperazin-1-yl]-7-oxo-2H,4H,7H-[1,2,3]triazolo[4,5-b]pyridin-4-yl]-N-[3-(propan-2-yl)bicyclo[1.1.1]pentan-1-yl]acetamide], the IC50 lay in the range of 5 to 50 nM. In the case of `CCc1c(N2CCN(C(=O)c3c(O)ccc4ncoc34)[C@H]3CC[C@@H]32)c(=O)c2nn(-c3ccnc(OC)c3)nc2n1CC(=O)NC12CC(C(C)C)(C1)C2` [I-136, 2-{5-ethyl-6-[(1S,6S)-5-(6-hydroxy-1,3-benzoxazole-7-carbonyl)-2,5-diazabicyclo[4.2.0]octan-2-yl]-2-(2-methoxypyridin-4-yl)-7-oxo-2H,4H,7H-[1,2,3]triazolo[4,5-b]pyridin-4-yl}-N-[3-(propan-2-yl)bicyclo[1.1.1]pentan-1-yl]acetamide], the IC50 is at most 5 nM.

For `CCc1c(N2CCN(C(=O)c3c(OC)ccc4ncoc34)[C@H]3CC[C@@H]32)c(=O)c2nn(C3=CCOCC3)nc2n1CC(=O)NC12CC(C3CC3)(C1)C2` [I-180, N-{3-cyclopropylbicyclo[1.1.1]pentan-1-yl}-2-[2-(3,6-dihydro-2H-pyran-4-yl)-5-ethyl-6-[(1S,6S)-5-(6-methoxy-1,3-benzoxazole-7-carbonyl)-2,5-diazabicyclo[4.2.0]octan-2-yl]-7-oxo-2H,4H,7H-[1,2,3]triazolo[4,5-b]pyridin-4-yl]acetamide], the IC50 lay in the range of 5 to 50 nM. The result for `CCc1c(N2CCN(C(=O)c3ncnc(C)c3O)[C@H]3CC[C@@H]32)c(=O)c2nn(C3=CCOCC3)nc2n1CC(=O)NC12CC(C(C)(C)C)(C1)C2` [I-184, N-{3-tert-butylbicyclo[1.1.1]pentan-1-yl}-2-[2-(3,6-dihydro-2H-pyran-4-yl)-5-ethyl-6-[(1S,6S)-5-(5-hydroxy-6-methylpyrimidine-4-carbonyl)-2,5-diazabicyclo[4.2.0]octan-2-yl]-7-oxo-2H,4H,7H-[1,2,3]triazolo[4,5-b]pyridin-4-yl]acetamide] reads 5 to 50 nM; that for `CCc1c(N2CCN(C(=O)c3c(O)c(F)cc4ncoc34)[C@H]3CC[C@@H]32)c(=O)c2nn(C3=CCOCC3)nc2n1CC(=O)NC12CC(C3CC3)(C1)C2` [I-182, N-{3-cyclopropylbicyclo[1.1.1]pentan-1-yl}-2-[2-(3,6-dihydro-2H-pyran-4-yl)-5-ethyl-6-[(1S,6S)-5-(5-fluoro-6-hydroxy-1,3-benzoxazole-7-carbonyl)-2,5-diazabicyclo[4.2.0]octan-2-yl]-7-oxo-2H,4H,7H-[1,2,3]triazolo[4,5-b]pyridin-4-yl]acetamide], 5 to 50 nM; that for `CCc1c(N2CCN(C(=O)c3ncc4c(c3O)CCO4)CC2)c(=O)n2nc(C3=CCOCC3)nc2n1CC(=O)NC12CC(C(F)F)(C1)C2` [I-8, N-(3-(difluoromethyl)bicyclo[1.1.1]pentan-1-yl)-2-(2-(3,6-dihydro-2H-pyran-4-yl)-5-ethyl-6-(4-(4-hydroxy-2,3-dihydrofuro[2,3-c]pyridine-5-carbonyl)piperazin-1-yl)-7-oxo-[1,2,4]triazolo[1,5-a]pyrimidin-4(7H)-yl)acetamide], 100 to 500 nM. Regarding `CCc1c(N2CCN(C(=O)c3ncnc(C)c3O)[C@H]3CC[C@@H]32)c(=O)c2nn(-c3ccn(C4CC4)n3)nc2n1CC(=O)NC12CC(C(C)C)(C1)C2` [I-78, 2-[2-(1-cyclopropyl-1H-pyrazol-3-yl)-5-ethyl-6-[(1S,6S)-5-(5-hydroxy-6-methylpyrimidine-4-carbonyl)-2,5-diazabicyclo[4.2.0]octan-2-yl]-7-oxo-2H,4H,7H-[1,2,3]triazolo[4,5-b]pyridin-4-yl]-N-[3-(propan-2-yl)bicyclo[1.1.1]pentan-1-yl]acetamide], the IC50 was 5 to 50 nM. In the case of `CCc1c(N2CCN(C(=O)c3ncnc(C)c3O)[C@H]3CC[C@@H]32)c(=O)c2nn(C3=CCC(OC)CC3)nc2n1CC(=O)NC12CC(C3CC3)(C1)C2` (stereo partly drawn) [I-163, N-{3-cyclopropylbicyclo[1.1.1]pentan-1-yl}-2-{5-ethyl-6-[(1S,6S)-5-(5-hydroxy-6-methylpyrimidine-4-carbonyl)-2,5-diazabicyclo[4.2.0]octan-2-yl]-2-(4-methoxycyclohex-1-en-1-yl)-7-oxo-2H,4H,7H-[1,2,3]triazolo[4,5-b]pyridin-4-yl}acetamide], the IC50 is 5 to 50 nM.

As to `CCc1c(N2CCN(C(=O)c3ncnc(C)c3O)[C@H]3CC[C@@H]32)c(=O)c2nn(-c3ccnc(OC)c3)nc2n1CC(=O)NC12CC(C3CCCC3)(C1)C2` [I-183, N-{3-cyclopentylbicyclo[1.1.1]pentan-1-yl}-2-{5-ethyl-6-[(1S,6S)-5-(5-hydroxy-6-methylpyrimidine-4-carbonyl)-2,5-diazabicyclo[4.2.0]octan-2-yl]-2-(2-methoxypyridin-4-yl)-7-oxo-2H,4H,7H-[1,2,3]triazolo[4,5-b]pyridin-4-yl}acetamide], the IC50 was at most 5 nM. As for `CCc1c(N2CCN(C(=O)c3ncnc(C)c3O)[C@H]3CC[C@@H]32)c(=O)c2nn(C3=CCOCC3)nc2n1CC(=O)NC1CC2(CCC2)C1` [I-185, 2-[2-(3,6-dihydro-2H-pyran-4-yl)-5-ethyl-6-[(1S,6S)-5-(5-hydroxy-6-methylpyrimidine-4-carbonyl)-2,5-diazabicyclo[4.2.0]octan-2-yl]-7-oxo-2H,4H,7H-[1,2,3]triazolo[4,5-b]pyridin-4-yl]-N-{spiro[3.3]heptan-2-yl}acetamide], the IC50 was in the range of 5 to 50 nM.
